According to patent publication US20240000758A1, “ELEVATION OF MITOCHONDRIAL BIOGENESIS AND FUNCTION BY INHIBITION OF PROSTAGLANDIN DEGRADING ENZYME 15-PGDH” (The Board of Trustees of the Leland Stanford Junior …, priority 2020, published 2024):
“Also recorded” adds a separate entry of the source.

How the values were obtained:
[1] = system: cyclic AMP response element binding protein (CREB); assay: immunoblots of muscle lysates for CREB activation after PGE2 i.m. injection; type: in vivo, C57BL/6 mice; details: young (3 mo.) mice, PGE2 i.m., 0, 30 or 60 minutes; FIG. 2A
Method: FIGS. 2A-2C. PGE2 treatment leads to activation of CREB in muscles and 15-PGDH inhibition leads to increased mitochondrial biogenesis and function in aged muscles. (FIG. 2A) Immunoblots of muscle lysates from young (3 mo.) C57BL/6 mice injected with PGE2 i.m. after 0, 30 or 60 minutes. (FIG. 2B) Quantification of immunoblot in (FIG. 2A) (n=3 mice per timepoint). (FIG. 2B) Representative images of intermyofibrillar (IMF) mitochondria from transmission electron micrographs (TEM) of longitudinal sections of EDL muscles of young, aged vehicle and aged SW (n=3 mice per condition; total mitochondria quantified, n=1,066 young, n=1,350 aged vehicle and n=1,371 aged SW). Different magnifications are as shown: 1,500×, 3,000× and 10,000× with […] respectively: 5 μm, 2 μm and 500 nm. (FIG. 2C) Citrate synthase activity of Quadriceps (Quad) muscles (n=13 aged vehicle and n=8 aged SW). *P<0.05, **P<0.01. ANOVA test with Fisher's LSD for multiple comparisons (FIG. 2B); unpaired t-test (FIG. 2C). Means±s.e.m.
To identify downstream signaling pathways through which 15-PGDH inhibition exerts its effects on aged muscles, we performed an unbiased transcriptomic analysis of aged muscles treated with vehicle or SW033291 (SW). […]

aged muscles [2] = assay: unbiased transcriptomic analysis of aged muscles treated with vehicle or SW033291; type: in vivo, mice; details: FIG. 1A
From the text: (§1) FIGS. 1A-1H. Boost in mitochondrial biogenesis and function is triggered by 15-PGDH inhibition in aged muscles. (FIG. 1A) Heatmap of mitochondrial genes. (FIG. 1B) Expression level of Pgc1α by qPCR (n=4 young, n=4 aged veh, n=3 aged SW033291 (SW)). (FIG. 1C) Relative quantification of mitochondrial DNA to nuclear DNA (n=4 per group). (FIG. 1D) Representative images and quantifications of intermyofibrillar (IMF) mitochondria numbers, their size, and myofibrillar width from transmission electron micrographs (TEM) of longitudinal sections of EDL muscles of young, aged vehicle and aged SW (n=3 mice per condition; total mitochondria quantified, n=1,066 young, n=1,350 aged vehicle and n=1,371 aged SW). Scale bar=2 μm. (FIG. 1E) Citrate synthase activity of Gastrocnemius muscles (n=3 young, n=4 aged vehicle and n=4 aged SW). (FIG. 1F) Representative TA cross-section stained for succinate dehydrogenase (SDH) (left). Quantification of SDH mean average intensity per fiber (n=4 mice per condition). (FIG. 1G) Representative images of mitochondrial membrane potential (TMRM staining) in isolated EDL myofibers from young, aged vehicle and SW treated mice (n=4 mice per condition; total number of fibers n=52 young, n=139 aged vehicle and n=89 aged SW). […] Quantification (right) (n=3 aged veh and SW). *P<0.05, **P<0.01, ***P<0.001, ****P<0.0001. […]

[3] = system: peroxisome proliferator-activated receptor gamma coactivator 1-alpha (Pgc1α); assay: Pgc1α mRNA level by qPCR in aged muscles; type: in vivo, mice; details: SW vs vehicle and young, FIG. 1B
From the text: as §1

aged muscles [4] = assay: relative quantification of mitochondrial DNA to nuclear DNA in aged muscles; type: in vivo, mice; details: SW treatment of aged muscles; FIG. 1C
From the text: as §1

[5] = system: intermyofibrillar (IMF) mitochondria of EDL muscles; assay: transmission electron microscopy (TEM) of Extensor digitorum longus (EDL) muscles; type: in vivo, mice
From the text: FIGS. 1A-1H. Boost in mitochondrial biogenesis and function is triggered by 15-PGDH inhibition in aged muscles. (FIG. 1A) Heatmap of mitochondrial genes. (FIG. 1B) Expression level of Pgc1α by qPCR (n=4 young, n=4 aged veh, n=3 aged SW033291 (SW)). (FIG. 1C) Relative quantification of mitochondrial DNA to nuclear DNA (n=4 per group). (FIG. 1D) Representative images and quantifications of intermyofibrillar (IMF) mitochondria numbers, their size, and myofibrillar width from transmission electron micrographs (TEM) of longitudinal sections of EDL muscles of young, aged vehicle and aged SW (n=3 mice per condition; total mitochondria quantified, n=1,066 young, n=1,350 aged vehicle and n=1,371 aged SW). Scale bar=2 μm. (FIG. 1E) Citrate synthase activity of Gastrocnemius muscles (n=3 young, n=4 aged vehicle and n=4 aged SW). (FIG. 1F) Representative TA cross-section stained for succinate dehydrogenase (SDH) (left). Quantification of SDH mean average intensity per fiber (n=4 mice per condition). (FIG. 1G) Representative images of mitochondrial membrane potential (TMRM staining) in isolated EDL myofibers from young, aged vehicle and SW treated mice (n=4 mice per condition; total number of fibers n=52 young, n=139 aged vehicle and n=89 aged SW). (FIG. 1H) Immunoblots of muscle lysates from: aged vehicle and SW treated mice together with colchicine, young mice without treatment, young mice treated with colchicine and young mice fasted and treated with colchicine. Quantification (right) (n=3 aged veh and SW). *P<0.05, **P<0.01, ***P<0.001, ****P<0.0001. ANOVA test with Tukey's test (FIG. 1D) or Fisher's LSD (FIGS. 1A, 1F, 1G) for multiple comparisons; Unpaired t-test (FIGS. 1C, 1E, 1H). Means±s.e.m.
(§2) FIGS. 2A-2C. […] (FIG. 2B) Quantification of immunoblot in (FIG. 2A) (n=3 mice per timepoint). (FIG. 2B) Representative images of intermyofibrillar (IMF) mitochondria from transmission electron micrographs (TEM) of longitudinal sections of EDL muscles of young, aged vehicle and aged SW (n=3 mice per condition; total mitochondria quantified, n=1,066 young, n=1,350 aged vehicle and n=1,371 aged SW). […]

citrate synthase = citrate synthase activity in isolated mitochondria of aged muscles; type: in vivo, mice; details: SW-treated aged muscles compared to controls, FIGS. 1E and 2C
From the text: as §1, with “(FIG. 1F) Representative TA cross-section stained for succinate dehydrogenase (SDH) (left).” left out, “condition).” for “condition). (FIG. 1G) Representative images of mitochondrial membrane potential (TMRM staining) in isolated EDL myofibers from young, aged vehicle and SW treated mice (n=4 mice per condition; total number of fibers n=52 young, n=139 aged vehicle and n=89 aged SW).”
as §2

succinate dehydrogenase = succinate dehydrogenase (SDH) staining of TA cross-sections; type: in vivo, mice; details: SW treated aged muscle; FIG. 1F
From the text: as §1

[6] = system: myofibers isolated from EDL muscles; assay: mitochondrial membrane potential (TMRM staining) in isolated EDL myofibers; type: in vivo; details: myofibers from EDL muscles of SW treated aged mice compared to controls; FIG. 1G
From the text: as §1

p62 = assay: autophagy flux, western blot of p62 upon colchicine treatment; type: in vivo; details: muscles of aged mice treated with SW compared to controls; FIG. 1H
From the text: as §1

aged muscles [7] = assay: muscle atrophy (cross sectional area, muscle mass) in aged mice; type: in vivo; details: aged treated with SW compared to vehicle controls
From the text: In addition, the morphology of the mitochondria improved. The shift in IMF mitochondrial area from compact and round in young to a larger size with more disorganized morphology in aged tissues was clearly evident, in agreement with reports by others (J. P. Leduc-Gaudet et al., Mitochondrial morphology is altered in atrophied skeletal muscle of aged mice. Oncotarget 6, 17923-17937 (2015); V. Romanello, M. Sandri, Mitochondrial Quality Control and Muscle Mass Maintenance. Front Physiol 6, 422 (2015)) (FIGS. 1D and 2B).

How did the “activation of CREB in skeletal muscles” value [1] turn out when `CCCCC[C@H](O)/C=C/[C@H]1[C@H](O)CC(=O)[C@@H]1C/C=C\CCCC(=O)O` [PGE2, Prostaglandin E2] was run?
Its value is “activates”.

How did the “components of mitochondria complexes I, II, IV and V of the electron transport chain (transcriptome)” value (aged muscles [2]; SW-treated aged muscles) turn out when `CCCC[S+]([O-])c1sc2nc(-c3cccs3)cc(-c3ccccc3)c2c1N` (stereo not shown) [SW, 2-(butylsulfinyl)-4-phenyl-6-(thiophen-2-yl)thieno[2,3-b]pyridin-3-amine] was run?
The value was “markedly increased”.

What about the “change in aged muscle tissue transcriptome: mitochondrial pathways (oxidative phosphorylation, ATP synthesis)” value (aged muscles [2]; aged muscles, SW vs vehicle) of the same compound?
The value was “strong enrichment for mitochondrial pathways”.

What about the “mRNA level of Pgc1α” value [3] of the same compound?
The value was “restored to that seen in young muscles”.

What about the “mitochondrial DNA content relative to nuclear DNA content” value (aged muscles [4]) of the same compound?
Its value is “increased”.

And the “number of intermyofibrillar (IMF) mitochondria” value ([5]; EDL muscles of aged mice after SW treatment, FIGS. 1D and 2B)?
The value was “increase”.

What about the mitochondrial morphology ([5]; aged EDL muscles, one month of SW treatment, FIG. 1D) of the same compound?
The mitochondrial morphology was “restored to a compact mitochondrial morphology resembling that seen in young”.

What about the myofibril width ([5]; aged treated with SW compared to vehicle controls, FIGS. 1D and 2B) of the same compound?
Its myofibril width is “increase”.

What about the citrate synthase activity (citrate synthase) of the same compound?
Its citrate synthase activity is “significantly increased; also recorded: restored to young levels”.

And the succinate dehydrogenase activity (succinate dehydrogenase)?
Its succinate dehydrogenase activity is “increased; also recorded: restored to young levels”.

And the mitochondrial membrane potential [6]?
The mitochondrial membrane potential was “increase; also recorded: restored to young levels”.

And the “autophagy flux (p62 upon colchicine treatment)” value (p62)?
Its value is “increased”.

What about the muscle atrophy (aged muscles [7]) of the same compound?
Its muscle atrophy is “attenuation of muscle atrophy”.
